Test [1] deals with mechanical allodynia in the affected paw of animals that had undergone spinal nerve ligation. Kind of test: Spinal nerve (L5/L6) ligation neuropathic pain model, mechanical allodynia with von Frey filaments. The test is classed as in vivo, rat. Particulars: for ED50: Rattus norvegicus, read-out: Analgesic Effect ED50. The text has this: Male Sprague Dawley rats (80-100 g) were purchased from Charles River (Portage, Mich.). Prior to surgery, animals were group-housed and maintained in a temperature regulated environment (lights on between 7:00 a.m. and 8:00 p.m.). Following nerve ligation surgery, animals were group housed. Rats had access to food and water ad libitum.
The L5 and L6 spinal nerves of anesthesized rats were tightly ligated in the manner described previously by S. H. Kim and J. M. Chung, PAIN 50:355 (1992). Briefly, an incision was made on the dorsal portion of the hip and the muscle was blunt dissected to reveal the spinal processes. The L6 transverse process was removed, and the left L5 and L6 spinal nerves were tightly ligated with 5.0 braided silk suture. The wound was cleaned, the membrane sewn with 4.0 dissolvable Vicryl suture and the skin closed with wound clips.
For the assessment of neuropathic pain, mechanical allodynia in the affected paw of animals that had undergone spinal nerve ligation was evaluated using von Frey filaments. As described previously by S. R. Chaplan, F. W. Bach, J. W. Pogrel, J. M. Chung, and T. L. Yaksh, “Quantitative assessment of tactile allodynia in the rat paw” J. Neurosci. Meth., 53:55-63 (1994) two weeks following surgery, rats were acclimated to the testing box that was constructed of plexiglass with a wire mesh floor to allow access to the planter surface of the hindpaws. Using the Dixons Up-Down method, a baseline level of allodynia was determined to have a withdrawal threshold of <4 g of pressure. […] The EC50 was determined to be 1 μmol/kg.

Test [2] addresses T1, ganglionic-like nicotinic acetylcholine receptor (nAChR) subtype in IMR-32 human neuroblastoma cells (Homo sapiens, UniProt P30926+P32297).
T1 construct: host or cells: IMR-32 human neuroblastoma cells
Kind of test: IMR-32 FLIPR assay, intracellular Ca2+ changes (side effect liability). It is filed as cell-based. The method, then:
Cells were plated out at a density of 1×10^6 cells per well on black-walled, clear-bottomed, 96-well plates (Costar, Cambridge, Mass.) and used approximately 72 hours after plating. All plates were coated with polyethylenimine to aid in the adherence of the cells to the plate.
Changes in the intracellular Ca^2+ content of IMR-32 cells were measured using the calcium chelating dye Fluo-4 (Molecular Probes, Eugene, Oreg.) in conjunction with a Fluorescent Imaging Plate Reader (Molecular Devices, Sunnyvale, Calif.). The cell permeant acetoxymethyl (AM) ester form of […] was prepared to a concentration of 1 mM in anhydrous DMSO and 10% pluronic acid. The dye was then diluted to a final concentration of […] in growth media and placed on the cells for 1 hour at 37° C. Black-walled 96-well plates were utilized to reduce light scattering. The unincorporated dye was removed from the cells by excessive washing with the assay buffer (HETES buffer, 20 mM Hepes, 120 mM NaCl, 5 mM KCl, 1 mM MgCl2, 5 mM glucose, […], and 5 mM CaCl2). […] The intensity of the fluorescence was captured by the CCD camera every second for the first minute following the agonist addition with additional readings every 5 seconds for a total time period of 5 minutes. These images were digitally transferred to an interfaced PC and change in fluorescence intensity processed for each well. The exposure setting of the camera was 0.4 sec with an f-stop setting of […].
The IMR-32 FLIPR assay, described herein, measures cation […] that is mediated through the ganglionic-like nicotinic acetylcholine receptor (nAChR) subtype. Agents that facilitate cation […] of the ganglionic nAChR subtype have been linked to side effect liabilty such as cardiovascular pressor effects.

Test [3] addresses T2, neuronal nicotinic acetylcholine receptors (Rattus norvegicus, UniProt P09483+P12390).
T2 construct: crude synaptic membrane preparations from whole rat brain; from tissue; host or cells: whole rat brain, crude synaptic membranes
Kind of test: [3H]-cytisine binding to neuronal nicotinic acetylcholine receptors, crude synaptic membranes from whole rat brain. Particulars: [3H]-CYT 1.25 nM, Cheng and Prusoff correction. The method, then:
(1S,5S)-3-(5,6-Dichloro-3-pyridinyl)-3,6-diazabicyclo [3.2.0]heptane was subjected to an vitro assay against the nicotinic acetylcholine receptor as described below.
Binding of [^3H]-cytisine ([^3H]-CYT) to neuronal nicotinic acetylcholine receptors was accomplished using crude synaptic membrane preparations from whole rat brain (Pabreza et al., Molecular Pharmacol., 1990, 39:9). Washed membranes were stored at −80° C. prior to use. Frozen aliquots were slowly thawed and resuspended in 20 volumes of buffer (containing: 120 mM NaCl, 5 mM KCl, 2 mM MgCl2, 2 mM CaCl2 and 50 mM Tris-Cl, pH 7.4 @4° C.). After centrifuging at 20,000×g for 15 minutes, the pellets were resuspended in 30 volumes of buffer.
Each test compound was dissolved in water to make 10 mM stock solutions, diluted (1 :100) with buffer (as above), and further taken through seven serial log dilutions to produce test solutions from 10^−5 to 10^−11 M.
Homogenate (containing 125-150 μg protein) was added to triplicate tubes containing the range of concentrations of test compound described above and [^3H]-CYT (1.25 nM) in a final volume of 500 μL. […] The filters are counted in 4 mL of Ecolume® (ICN). Nonspecific binding was determined in the presence of 10 μM (−)-nicotine and values were expressed as a percentage of total binding. […]

Test [4] relates to scopolamine-induced cognitive deficit. Kind of test: Morris water maze, spatial discrimination version, scopolamine-induced cognitive deficit. It is filed as in vivo, rat. Particulars: about 0.001 to about 5 μmol/kg, 30 minutes prior to the test; scopolamine-HBr 0.3 mg/kg i.p. The method, then:
Male, Long-Evans rats, 300-400 g, obtained from Charles River laboratories were used in this study. During two daily habituation sessions, rats are trained to find a visible escape platform in a pool (180 cm diameter and 60 cm high) filled to a depth of 37 cm with water made opaque with powdered milk. Water temperature is maintained at 26° C. On the second day of habituation training, latency to escape measures are obtained in order to assure that animals are assigned to groups without swim speed bias. For spatial discrimination training, two visible platforms, covered in aluminum foil, are present. The platforms remain in the same position (diagonal to each other) through 5 days of training. Only one of the platforms provides escape; the other, made of expanded polystyrene, will not support the animals' weight. Rats receive six trials/day, with start position changed from trial to trial. The number of contacts with the incorrect platform (errors) serves as the dependent variable.
A cognitive deficit, as measured by increased number of errors in the water maze test, is induced by i.p. administration of the muscarinic antagonist scopolamine-HBr (0.3 mg/kg), dosed 15 min prior to each daily discrimination training session (over five days total).

Where [5] appears, read: IMR-32, Table 1, relative to nicotine, read-out: IMR-32 activitiy % efficacy.
Where [6] appears, read: Table 1, read-out: IMR-32 activitiy EC50.
[7] abbreviates: intraperitoneally 15 minutes before testing.

pEC50, pKi: −log10 of the molar value. Like-named read-outs stand apart in the source and are kept apart here. A value given as a limit tells only on which side of the number the result lay.

T1 sequence (P32297 32-505): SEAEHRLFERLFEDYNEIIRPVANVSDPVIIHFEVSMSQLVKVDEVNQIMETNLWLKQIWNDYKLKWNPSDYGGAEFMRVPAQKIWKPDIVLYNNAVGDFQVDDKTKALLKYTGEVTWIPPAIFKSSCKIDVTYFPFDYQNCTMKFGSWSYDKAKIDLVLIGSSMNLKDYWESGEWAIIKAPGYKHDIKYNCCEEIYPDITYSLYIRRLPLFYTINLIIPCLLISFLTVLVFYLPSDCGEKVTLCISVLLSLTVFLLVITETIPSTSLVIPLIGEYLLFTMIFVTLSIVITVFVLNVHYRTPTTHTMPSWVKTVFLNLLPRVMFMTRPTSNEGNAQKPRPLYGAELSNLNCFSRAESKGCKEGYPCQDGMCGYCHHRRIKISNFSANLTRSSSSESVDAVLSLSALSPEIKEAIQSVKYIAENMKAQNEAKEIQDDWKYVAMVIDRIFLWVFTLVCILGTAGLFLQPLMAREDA
T1 sequence (P30926 22-498): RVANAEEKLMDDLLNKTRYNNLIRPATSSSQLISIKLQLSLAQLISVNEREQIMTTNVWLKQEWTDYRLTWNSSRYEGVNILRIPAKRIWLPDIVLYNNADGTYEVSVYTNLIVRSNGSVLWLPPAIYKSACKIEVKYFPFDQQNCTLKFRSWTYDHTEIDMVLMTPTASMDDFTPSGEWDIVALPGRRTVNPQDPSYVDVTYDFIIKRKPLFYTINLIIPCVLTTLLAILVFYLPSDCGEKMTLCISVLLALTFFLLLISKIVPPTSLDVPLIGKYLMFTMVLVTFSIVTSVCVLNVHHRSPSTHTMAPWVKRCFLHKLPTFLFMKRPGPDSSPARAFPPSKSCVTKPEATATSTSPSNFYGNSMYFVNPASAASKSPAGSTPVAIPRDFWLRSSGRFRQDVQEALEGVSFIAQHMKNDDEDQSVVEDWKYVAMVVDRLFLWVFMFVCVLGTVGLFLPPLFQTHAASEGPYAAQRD
T2 sequence (P09483 31-630): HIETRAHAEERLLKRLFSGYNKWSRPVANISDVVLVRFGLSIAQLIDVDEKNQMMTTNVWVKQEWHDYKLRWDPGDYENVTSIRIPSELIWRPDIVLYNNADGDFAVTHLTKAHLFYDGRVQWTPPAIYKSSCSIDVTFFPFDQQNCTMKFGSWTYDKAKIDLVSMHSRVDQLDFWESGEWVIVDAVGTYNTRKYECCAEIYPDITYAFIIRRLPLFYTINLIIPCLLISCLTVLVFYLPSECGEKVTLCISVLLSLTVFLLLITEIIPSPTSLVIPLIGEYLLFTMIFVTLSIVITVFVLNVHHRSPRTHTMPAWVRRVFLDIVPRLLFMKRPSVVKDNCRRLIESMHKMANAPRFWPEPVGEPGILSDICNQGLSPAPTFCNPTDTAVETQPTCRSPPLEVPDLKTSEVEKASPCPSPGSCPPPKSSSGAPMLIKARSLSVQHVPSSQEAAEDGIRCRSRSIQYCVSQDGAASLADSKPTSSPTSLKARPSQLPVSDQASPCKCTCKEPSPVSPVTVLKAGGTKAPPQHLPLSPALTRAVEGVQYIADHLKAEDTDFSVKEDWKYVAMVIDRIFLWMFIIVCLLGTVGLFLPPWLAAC
T2 sequence (P12390 25-500): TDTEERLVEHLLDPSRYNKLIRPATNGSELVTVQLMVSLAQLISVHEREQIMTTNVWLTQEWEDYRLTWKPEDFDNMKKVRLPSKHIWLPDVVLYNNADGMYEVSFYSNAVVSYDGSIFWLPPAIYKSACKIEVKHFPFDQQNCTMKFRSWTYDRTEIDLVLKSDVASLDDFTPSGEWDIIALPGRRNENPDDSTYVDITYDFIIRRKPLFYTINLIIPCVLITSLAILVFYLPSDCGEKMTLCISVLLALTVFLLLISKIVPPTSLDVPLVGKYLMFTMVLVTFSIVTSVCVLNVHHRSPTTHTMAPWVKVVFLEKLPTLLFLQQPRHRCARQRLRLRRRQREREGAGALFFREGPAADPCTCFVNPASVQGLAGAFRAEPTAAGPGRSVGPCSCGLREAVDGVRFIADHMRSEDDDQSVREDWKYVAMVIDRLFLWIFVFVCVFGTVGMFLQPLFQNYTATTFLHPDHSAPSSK

On to `COc1cncc(N2C[C@@H]3CN[C@@H]3C2)c1` [(1S,5S)-3-(5-methoxy-3-pyridinyl)-3,6-diazabicyclo[3.2.0]heptane], for which the ED50 in test [1] is more than 19 µmol/kg. In addition, the pEC50 in test [2] was 5.42. Also, the Emax in test [2] (setting [5]) was 147%.

With `c1cncc(N2C[C@@H]3CN[C@@H]3C2)c1` [(1S,5S)-3-(3-pyridinyl)-3,6-diazabicyclo[3.2.0]heptane], the ED50 in test [1] is 20 µmol/kg. Besides, the Emax in test [2] (setting [5]) was found to be 100%. In addition, the pEC50 in test [2] (setting [6]) is 4.63.

Consider `Clc1cc(N2C[C@@H]3CN[C@@H]3C2)cnc1Br` [(1S,5S)-3-(6-bromo-5-chloro-3-pyridinyl)-3,6-diazabicyclo[3.2.0]heptane], for which the ED50 in test [1] was more than 19 µmol/kg. Besides, in test [2], the pEC50 was 5.85. Besides, the Emax in test [2] (setting [5]) amounted to 81%.

With `Clc1ccc(C2CC3CCC2N3)cn1` (stereo not drawn) [epibatidine], in test [2] (IMR-32, read-out: maximum efficacy compared to nicotine), the Emax amounted to 137%.

Turning to `Clc1cc(N2C[C@H]3CN[C@H]3C2)cnc1Cl` [(1R,5R)-3-(5,6-dichloro-3-pyridinyl)-3,6-diazabicyclo[3.2.0]heptane], the Emax in test [2] (setting [5]) came out at 106%. In addition, the pEC50 in test [2] (setting [6]) is 7.11.

On to `Cc1cc(N2C[C@@H]3CN[C@@H]3C2)cnc1Cl` [(1S,5S)-3-(6-chloro-5-methyl-3-pyridinyl)-3,6-diazabicyclo[3.2.0]heptane], for which the ED50 in test [1] was more than 19 µmol/kg. For the same molecule, in test [2], the pEC50 was 5.47. Besides, the Emax in test [2] (setting [5]) stood at 94%.

For `N#Cc1cc(N2C[C@@H]3CN[C@@H]3C2)cnc1Br` [2-bromo-5-[(1S,5S)-3,6-diazabicyclo[3.2.0]hept-3-yl]nicotinonitrile], the ED50 in test [1] is more than 19 µmol/kg. The same molecule showed a pEC50 in test [2] of 5.92. Moreover, in test [2] (setting [5]), the Emax was 103%.

`N#Cc1cncc(N2C[C@@H]3CN[C@@H]3C2)c1` [5-[(1S,5S)-3,6-diazabicyclo[3.2.0]hept-3-yl]nicotinonitrile]: the ED50 in test [1] was more than 19 µmol/kg. Besides, the Emax in test [2] (setting [5]) worked out at 85%. Besides, the negative logarithm of the EC50 (pEC50) in test [2] (setting [6]) was 4.70.

As to `Clc1ccc(N2C[C@@H]3CN[C@@H]3C2)cn1` [(1S,5S)-3-(6-chloro-3-pyridinyl)-3,6-diazabicyclo[3.2.0]heptane], in test [1], the ED50 came to 11 µmol/kg. Besides, in test [2], the pEC50 is 5.85. In addition, the Emax in test [2] (setting [5]) was determined as 102%.

Consider `Clc1cc(N2C[C@@H]3CN[C@@H]3C2)cnc1Cl` [(1S,5S)-3-(5,6-dichloro-3-pyridinyl)-3,6-diazabicyclo[3.2.0]heptane], for which the pKi in test [3] is 10.00. The median effective dose (ED50) in test [1] (Table 1) was 1 µmol/kg. Moreover, in test [1] (setting [7]), the “ED50 (increase in withdrawal threshold)” value was determined as 1 µmol/kg and the “effect on withdrawal threshold” value is “dose-dependent increase in the withdrawal threshold”. Further, in test [1] (intraperitoneally 15 minutes before testing, baseline threshold <4 g), the “maximum effect on withdrawal threshold” value is reported as 15 g. Also, the Emax in test [2] (setting [5]) was determined as 73%. For the same molecule, the Emax in test [2] (IMR-32, relative to 100 μM nicotine (100%), read-out: maximum efficacy compared to nicotine) came out at 73%. Also, in test [2] (percent maximal intensity relative to 100 μM nicotine, read-out: EC50 (calcium, IMR-32 cells)), the pEC50 is 5.26. Besides, the “effect on scopolamine-induced cognitive deficit in water maze (errors)” value in test [4] is “reversed the cognitive deficit and normalized the performance of the animals in the water maze”.

(Values after patent US20040242641A1, “(1S,5S)-3-(5,6-dichloro-3-pyridinyl)-3,6-diazabicyclo[3.2.0]heptane is an effective analgesic agent” (priority 2003, published 2004).)
